Values quoted from earlier work, collected in patent US20170000414A1, “Use of Blood Flow Parameters to Monitor or Control the Dosing of Anti-Platelet Agents” (RHEOVECTOR, LLC, priority 2014, published 2017).

Experiments:
[1] = aspirin 81 mg; healthy individuals
[2] = 18,624 patients having prior acute coronary syndrome

In the case of `CC(=O)Oc1ccccc1C(=O)O` [Aspirin, acetylsalicylic acid], the “effect on blood viscosity” value [1] is listed as “no significant effect”.
In the case of `COC(=O)[C@H](c1ccccc1Cl)N1CCc2sccc2C1` [clopidogrel], the “reducing CVD events or death, compared with aspirin 325 mg” value (clopidogrel 75 mg, 19,185 patients with atherosclerosis (symptomatic PAD, recent ischemic stroke or MI)) is listed as “more effective”, the relative risk reduction (group entering the trial with symptomatic PAD, p=0.0028) is listed as 23.8% and the “reduction in MI, stroke or cardiovascular death rates” value (patients who entered the trial with an ischemic stroke or MI) is listed as “no reduction”.
For `CCCSc1nc(N[C@@H]2C[C@H]2c2ccc(F)c(F)c2)c2nnn([C@@H]3C[C@H](OCCO)[C@@H](O)[C@H]3O)c2n1` [Ticagrelor], the “rate of cardiovascular disease (CVD) events and death compared with clopidogrel” value [2] is listed as “reduce significantly”.
